Measured values reported in PMC3890372 (Nature communications, 2013).

Legend:
[1] = target: T1, human Smo CRD (Smoothened) (Homo sapiens, UniProt Q99835); experiment: Bio-Layer Interferometry; assay type: binding
T1 sequence (Q99835 65-177): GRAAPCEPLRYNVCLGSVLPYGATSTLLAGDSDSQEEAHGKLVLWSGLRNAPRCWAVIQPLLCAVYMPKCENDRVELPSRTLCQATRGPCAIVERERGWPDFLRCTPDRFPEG

[2] = target: T2, Drosophila Smo CRD (Smoothened) (Drosophila melanogaster, UniProt P91682); experiment: Bio-Layer Interferometry; assay type: binding
T2 sequence (P91682 85-202): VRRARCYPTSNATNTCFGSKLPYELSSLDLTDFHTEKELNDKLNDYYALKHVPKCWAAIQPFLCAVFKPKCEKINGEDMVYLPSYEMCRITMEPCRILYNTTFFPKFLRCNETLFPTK

Kd [1]: 52 ± 16 µM | Kd [2]: 120 ± 98 µM
Structure (SMILES): CCCC1O[C@@H]2C[C@H]3[C@@H]4CCC5=CC(=O)C=C[C@]5(C)[C@H]4[C@@H](O)C[C@]3(C)[C@]2(C(=O)CO)O1 (some centres unmarked) [Bud, budesonide]
